According to patent publication US20080275075A1, “Medicine Comprising a Combination of an Acetylcholinesterase Inhibitor and a 5-Substituted-3-Oxadiazolyl-1,6-Naphthyridin-2(1H)-One Derivative” (priority 2004, published 2008):
Where a name gives a salt, the structure may show the parent alone.

Assays:
[1] = system: spatial memory disorder induced by scopolamine; experiment: Ameliorating effect on spatial memory disorder induced by scopolamine (Y-maze alternation behavior); type: in vivo, ddY male mice; settings: for Single administration [MED (mg/kg)]: minimum effective dose, 1 h before scopolamine 0.6 mg/kg s.c.; for Single administration [MED (mg/kg)] / # [MED (mg/kg)] Combined administration with donepezil: oral; for dose at which spatial memory disorder induced by scopolamine was significantly ameliorated: single oral administration; for # [MED (mg/kg)] Combined administration with donepezil: minimum effective dose of test compound, combined with donepezil 1 mg/kg
Method: (§1) The pharmacological experiment to investigate ameliorating effect on spatial memory disorder induced by scopolamine was carried out by systemic administration to animals according to the following method of Itoh, T. et al. In addition, the pharmacological experiment to investigate ameliorating effect on spatial memory disorder induced by MK-801 was carried out by systemic administration to animals according to the following method of Maurice, T. et al.
(§2) The spatial memory test using Y-maze apparatus which was selected for the pharmacological experiment is a test to utilize the behavioral property of animals to enter into a new arm, avoiding the arm that they entered into just before (alternation behavior). This method is often used in order to study spatial working memory.
This experiment was carried out according to the method of Itoh, J., et al. [Eur. J. Pharmacol., 236, pp. 341-345 (1993)].
Ten to twelve ddY male mice weighing 28-34 g were used per one group in the experiment. A solution of scopolamine in physiological saline (concentration: 0.06 mg/ml) was subcutaneously administered to mice in a volume of 0.1 ml/10 g of body weight, i.e., 0.6 mg/kg. […] However, the vehicle control group was injected with physiological saline instead of scopolamine. Thirty minutes after the administration of scopolamine, the mice were placed at the end of the arm A of the Y-maze apparatus which was composed of three black acrylic trapezoid arms (bottom width: 3 cm, height of side wall: 12 cm, width of opened ceiling: 10 cm, length: 40 cm), wherein said three arms were connected at the one end of each arm to form Y-shape and another ends were closed, and the three arms were differentiated by the names as A, B and C respectively, and allowed to search freely the maze for 8 minutes. When the mouse was checked to enter into an arm at the length of not less than 10 cm from the entrance of the arm, the name of the arm (A, B or C) was recorded. For the final data gotten, the ratio of the number of the alternation behavior to that of the entries (obtained by subtracting 2 from the total number of arm entries) was estimated as the rate of alternation behavior.
In statistical analysis, the rate of alternation behavior in the amnesia control group was compared with that in the vehicle control group by the Wilcoxon rank sum test and it was checked if a significant amnesia was induced in the amnesia control group. Next, the efficacy of the test compounds in single use or in combination use of the test compounds with donepezil was evaluated in comparison between the amnesia control group and the single-administration groups using each one of the test compound A, the test compound B or donepezil; or in comparison between the amnesia control group and the combination groups of the test compound A or B and donepezil, by the nonparametric Dunnett multiple comparison test. The statistical calculation was carried out with SAS® System (Release 8.02, SAS Institute Inc.) and Preclinical Package Version 5.0 (SAS Institute Japan Ltd.).

[2] = system: spatial memory disorder induced by MK-801; experiment: Ameliorating effect on spatial memory disorder induced by MK-801 (Y-maze alternation behavior); type: in vivo, ddY male mice; settings: for [MED (mg/kg)]: minimum effective dose, oral, 1 h before MK-801 0.1 mg/kg s.c., single administration
Method: as §1, §2
This experiment was carried out according to the method of Maurice, T., et al. [Brain Res., 647, pp. 44-56 (1994)].
Ten to twelve ddY male mice weighing 26-36 g were used per one group in the experiment. A solution of MK-801 in physiological saline (concentration: 0.01 mg/ml) was subcutaneously administered to mice in a volume of 0.1 ml/10 g of body weight, i.e., 0.1 mg/kg. One hour before MK-801 administration, the groups of mice to which each test compound should be singly administered were orally treated with test compound A, test compound B or donepezil suspended in 0.5% tragacanth solution in a volume of 0.1 ml/10 g of body weight; and the animals in the amnesia control group and the vehicle control group orally received a 0.5% tragacanth solution in a volume of 0.1 ml/10 g of body weight. However, the vehicle control group was injected with physiological saline instead of MK-801. Twenty minutes after administration of MK-801, the mice were placed at the end of the arm A of the Y-maze apparatus which was composed of three black acrylic trapezoid arms (bottom width: 3 cm, height of side wall: 12 cm, width of opened ceiling: 10 cm, length: 40 cm), wherein said three arms were connected at the one end of each arm to form Y-shape and another ends were closed, and the three arms were differentiated by the names as A, B and C respectively, and allowed to search freely the maze for 8 minutes. When the mouse was checked to enter into an arm at the length of not less than 10 cm from the entrance of the arm, the name of the arm (A, B or C) was recorded. For the final data gotten, the ratio of the number of the alternation behavior to that of the entries (obtained by subtracting 2 from the total number of arm entries) was estimated as the rate of alternation behavior.
In statistical analysis, the rate of alternation behavior in the amnesia control group was compared with that in the vehicle control group by the Wilcoxon rank sum test and it was checked if a significant amnesia was induced in the amnesia control group. Next, the efficacy of the test compounds was evaluated in comparison between the amnesia control group and each group of test compound A, test compound B or donepezil by the nonparametric Dunnett multiple comparison test. The statistical calculation was carried out with SAS® System (Release 8.02, SAS Institute Inc.) and Preclinical Package Version 5.0 (SAS Institute Japan Ltd.).

Row | SMILES | amelioration of spatial memory disorder induced by scopolamine ([1]; 1 mg/kg, single administration) | Single administration [MED (mg/kg)] ([1]; single administration) | dose at which spatial memory disorder induced by scopolamine was significantly ameliorated [1] | [MED (mg/kg)] [2] | amelioration of spatial memory disorder induced by MK-801 ([2]; single oral administration) | rate of alternation behavior ([2]; amnesia control group, MK-801 0.1 mg/kg s.c., vehicle control group 65-73%) | # [MED (mg/kg)] Combined administration with donepezil ([1]; scopolamine 0.6 mg/kg s.c.) | dose at which spatial memory disorder induced by MK-801 was significantly ameliorated ([2]; single oral administration) | rate of alternation behavior ([1]; amnesia control group, scopolamine 0.6 mg/kg s.c., vehicle control group 63-70%)
1 | COc1cc2c(cc1OC)C(=O)C(CC1CCN(Cc3ccccc3)CC1)C2 (centres unmarked) [Donepezil, Donepezil hydrochloride, reference compound] | not ameliorated | 10 mg/kg | ≥ 10 mg/kg | >15 mg/kg | not ameliorated | – | – | – | –
2 | C[C@]12N[C@H](Cc3ccccc31)c1ccccc12 [MK-801, dizocilipine maleate, reference compound] | – | – | – | – | – | 45-47% | – | – | –
3 | COc1cccc(-c2nccc3[nH]c(=O)c(-c4noc(C)n4)cc23)c1 [Test compound A, 3-(5-methyl-1,2,4-oxadiazol-3-yl)-5-(3-methoxyphenyl)-1,6-naphthyridin-2(1H)-one] | – | 0.3 mg/kg | ≥ 0.3 mg/kg | 0.3 mg/kg | – | – | 0.03 mg/kg | ≥ 0.3 mg/kg | –
4 | O=c1[nH]c2ccnc(-c3ccsc3)c2cc1-c1nc(C2CC2)no1 [Test compound B, 3-(3-cyclopropyl-1,2,4-oxadiazol-5-yl)-5-(3-thienyl)-1,6-naphthyridin-2(1H)-one] | – | 0.1 mg/kg | ≥ 0.1 mg/kg | 0.1 mg/kg | – | – | 0.01 mg/kg | ≥ 0.1 mg/kg | –
5 | CN1[C@@H]2C[C@@H](OC(=O)[C@H](CO)c3ccccc3)C[C@H]1[C@@H]1O[C@@H]12 [scopolamine, Scopolamine hydrobromide, reference compound] | – | – | – | – | – | – | – | – | 39-46%
